Square brackets hold non-standard residues; d marks the D form. Peptide text beside a SMILES is read from it. * marks the point of attachment. pNA = O=[N+]([O-])c1ccc(N*)cc1; pGlu = O=C1CC[C@@H](C(=O)O)N1
Legend:
Format in all cases: biochemical
Details in all cases: substrate solution 2 mmol/l (100 μl in 1 ml), tris buffer 50 mmol/l pH 8.0, 37° C.; pNA measured at 405 nm, Blue 49 at 623 nm
protein C = protein C (Homo sapiens, UniProt P04070); assay: Substrate testing: cleavage of chromogenic substrate by protein C
Sequence of protein C (P04070 212-461 limits assumed): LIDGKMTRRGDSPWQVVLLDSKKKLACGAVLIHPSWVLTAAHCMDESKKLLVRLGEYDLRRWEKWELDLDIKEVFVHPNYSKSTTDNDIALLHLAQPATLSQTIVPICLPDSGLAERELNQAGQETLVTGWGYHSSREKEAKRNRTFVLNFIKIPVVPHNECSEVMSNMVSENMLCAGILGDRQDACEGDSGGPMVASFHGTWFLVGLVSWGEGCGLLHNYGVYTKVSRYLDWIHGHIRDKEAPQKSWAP
Sequence of protein C (P04070 43-197 partner limits assumed): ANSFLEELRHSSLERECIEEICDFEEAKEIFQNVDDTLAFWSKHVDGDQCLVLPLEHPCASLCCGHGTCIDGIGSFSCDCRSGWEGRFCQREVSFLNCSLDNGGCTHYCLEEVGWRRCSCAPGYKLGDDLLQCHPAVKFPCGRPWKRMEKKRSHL
Experimental: (§1) 100 μl of the enzyme solution were added to a 800 μl of buffer solution (trishydroxyaminomethane, 50 mmol/l), pH 8.0, at 37° C., and 100 μl of 2 mmol/l of substrate solution were added. pNA cleaved off was measured at 405 nm, and Blue 49 or Blue 124 was measured at 623 nm. The cleavage rates were determined in OD/minute. The relative cleavage raten, and thus the specificities of some substrates and enzymes, can be seen from Table II.

thrombin = thrombin (Homo sapiens, UniProt P00734); assay: Substrate testing: cleavage of chromogenic substrate by thrombin
Experimental: as §1

plasmin = plasmin (Homo sapiens, UniProt P00747); assay: Substrate testing: cleavage of chromogenic substrate by plasmin
Sequence of plasmin (P00747 581-810 limits assumed, species assumed): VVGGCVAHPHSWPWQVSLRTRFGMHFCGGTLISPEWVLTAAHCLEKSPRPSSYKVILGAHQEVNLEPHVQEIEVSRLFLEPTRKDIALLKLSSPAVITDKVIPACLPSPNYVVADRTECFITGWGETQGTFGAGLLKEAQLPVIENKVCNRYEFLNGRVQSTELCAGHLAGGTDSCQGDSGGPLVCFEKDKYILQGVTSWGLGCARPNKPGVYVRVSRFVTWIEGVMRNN
Sequence of plasmin (P00747 97-580 partner limits assumed, species assumed): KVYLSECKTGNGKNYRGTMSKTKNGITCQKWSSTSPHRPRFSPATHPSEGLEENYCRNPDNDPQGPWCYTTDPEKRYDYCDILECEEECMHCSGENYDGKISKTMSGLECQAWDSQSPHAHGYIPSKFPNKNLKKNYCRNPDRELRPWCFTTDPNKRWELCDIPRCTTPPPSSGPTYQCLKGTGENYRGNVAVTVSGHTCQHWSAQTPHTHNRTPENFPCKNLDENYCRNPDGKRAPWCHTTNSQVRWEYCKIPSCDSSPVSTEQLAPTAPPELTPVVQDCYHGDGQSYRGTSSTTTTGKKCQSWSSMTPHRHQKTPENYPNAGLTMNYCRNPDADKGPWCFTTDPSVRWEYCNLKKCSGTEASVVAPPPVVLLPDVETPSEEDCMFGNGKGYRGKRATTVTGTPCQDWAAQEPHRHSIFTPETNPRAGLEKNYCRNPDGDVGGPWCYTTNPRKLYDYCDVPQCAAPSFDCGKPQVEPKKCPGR
Experimental: as §1

F Xa = F Xa (Homo sapiens, UniProt P00742); assay: Substrate testing: cleavage of chromogenic substrate by F Xa
Sequence of F Xa (P00742 235-488 limits assumed): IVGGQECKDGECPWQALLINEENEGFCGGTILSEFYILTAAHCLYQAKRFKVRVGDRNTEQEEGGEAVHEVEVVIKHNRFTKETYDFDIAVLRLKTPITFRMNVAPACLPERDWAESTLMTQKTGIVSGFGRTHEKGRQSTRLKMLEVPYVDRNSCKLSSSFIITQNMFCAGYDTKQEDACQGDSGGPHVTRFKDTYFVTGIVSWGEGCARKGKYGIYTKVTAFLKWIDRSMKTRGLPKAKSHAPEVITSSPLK
Sequence of F Xa (P00742 41-179 partner limits assumed): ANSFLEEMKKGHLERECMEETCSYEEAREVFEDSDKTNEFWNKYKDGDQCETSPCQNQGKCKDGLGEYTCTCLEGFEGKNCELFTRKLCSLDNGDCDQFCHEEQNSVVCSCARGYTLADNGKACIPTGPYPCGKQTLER
Experimental: as §1

kallikrein = assay: Substrate testing: cleavage of chromogenic substrate by kallikrein
Experimental: as §1

urokinase = urokinase (Homo sapiens, UniProt P00749); assay: Substrate testing: cleavage of chromogenic substrate by urokinase
Experimental: as §1

## 7-(D-phenylalanyl-L-prolyl-L-arginylamino)-3-diethylamino-8-methylphenoxazo nium triacetate [H--D--Phe--Pro--Arg--Blue 49]
Protein C
  cleavage rate, protein C: 0.03 OD/minute
thrombin
  cleavage rate, thrombin: 0.395 OD/minute
plasmin
  cleavage rate, plasmin: 0.00 OD/minute
F Xa
  cleavage rate, F Xa: 0.01 OD/minute
kallikrein
  cleavage rate, kallikrein: 0.00 OD/minute

## N=C(N)NCCC[C@H](NC(=O)[C@@H]1CCCCN1C(=O)[C@H](N)Cc1ccccc1)C(=O)Nc1ccc([N+](=O)[O-])cc1 [H--D--Phe--Pip--Arg--pNA, reference compound]
Protein C
  cleavage rate, protein C: 0.075 OD/minute
thrombin
  cleavage rate, thrombin: 0.41 OD/minute
plasmin
  cleavage rate, plasmin: 0.035 OD/minute
F Xa
  cleavage rate, F Xa: 0.025 OD/minute
kallikrein
  cleavage rate, kallikrein: 0.11 OD/minute

## N=C(N)NCCC[C@H](NC(=O)CNC(=O)[C@@H]1CCC(=O)N1)C(=O)Nc1ccc([N+](=O)[O-])cc1 [pyro--Glu--Gly--Arg--pNA, reference compound] ([pGlu]-Gly-Arg-pNA)
Protein C
  cleavage rate, protein C: 0.30 OD/minute
thrombin
  cleavage rate, thrombin: 0.00 OD/minute
plasmin
  cleavage rate, plasmin: 0.01 OD/minute
F Xa
  cleavage rate, F Xa: 0.01 OD/minute
kallikrein
  cleavage rate, kallikrein: 0.01 OD/minute

## N=C(N)NCCC[C@H](NC(=O)[C@@H]1CCCN1C(=O)[C@@H]1CCC(=O)N1)C(=O)Nc1ccc([N+](=O)[O-])cc1 [pyro--Glu--Pro--Arg--pNA, reference compound] ([pGlu]-Pro-Arg-pNA)
Protein C
  cleavage rate, protein C: 0.40 OD/minute
thrombin
  cleavage rate, thrombin: 0.41 OD/minute
plasmin
  cleavage rate, plasmin: 0.53 OD/minute
F Xa
  cleavage rate, F Xa: 0.04 OD/minute
kallikrein
  cleavage rate, kallikrein: 0.51 OD/minute

## D--Leu--Pro--Arg--Blue 49 [H--D--Leu--Pro--Arg--Blue 49]
Protein C
  cleavage rate, protein C: 0.47 OD/minute
thrombin
  cleavage rate, thrombin: 0.09 OD/minute
plasmin
  cleavage rate, plasmin: 0.015 OD/minute
F Xa
  cleavage rate, F Xa: 0.035 OD/minute
kallikrein
  cleavage rate, kallikrein: 0.015 OD/minute

## Tos--Gly--Pro--Arg--Blue 49
Protein C
  cleavage rate, protein C: 0.76 OD/minute
thrombin
  cleavage rate, thrombin: 0.15 OD/minute
plasmin
  cleavage rate, plasmin: 0.02 OD/minute
F Xa
  cleavage rate, F Xa: 0.095 OD/minute
kallikrein
  cleavage rate, kallikrein: 0.02 OD/minute

## pyro--Glu--Pro--Arg--Blue 49
urokinase
  cleavage rate, urokinase: 1,0 OD/minute
Protein C
  cleavage rate, protein C: 0.22 OD/minute
thrombin
  cleavage rate, thrombin: 0.015 OD/minute
plasmin
  cleavage rate, plasmin: 0.03 OD/minute
F Xa
  cleavage rate, F Xa: 0.02 OD/minute
kallikrein
  cleavage rate, kallikrein: 0.015 OD/minute

Source: patent US5097014A, “Chromogenic tripeptides” (Behringwerke Aktiengesellschaft, priority 1986, dated 1992)
